Here are results for 3 molecules from publication PMC3259267 (Bioorganic & medicinal chemistry, 2011).

Data set [1] in a line: Caco-2 monolayer permeability. The settings on record: human.
The nature of data set [2]: Plasma concentration and blood brain barrier penetration. The settings on record: G93A SOD1 transgenic mice, single ip 50 mg/kg.
Data set [3] concerns panel of 68 radioligand receptor assays. The experiment in a line: LeadProfilingScreen radioligand binding panel. The settings on record: 10 uM; none positive, mostly <10%.
The test system of another data set is ALS. The note with it: ALS patients, on average; ref [1]; cited from earlier work.

Where only a bound is given, the exact number is not on record here.

Turning to `CC(Oc1cc(C(F)(F)F)cc(C(F)(F)F)c1)C1CC(=O)CC(=O)C1` (stereo not shown) [Compound 73], the Papp A→B at 2 h, 50 μM in data set [1] was 24.8 ×10⁻⁶ cm/s.

Regarding `O=C1CC(=O)CC(c2cc(C(F)(F)F)cc(C(F)(F)F)c2)C1` [Compound 26], in data set [2], the “period of stable plasma concentrations” value was 3 to 12 h. In data set [3], the “inhibition in all 68 radioligand receptor assays” value is under 20%. As for `Nc1nc2ccc(OC(F)(F)F)cc2s1` [riluzole], in the data set on ALS, the extension of life is on record as 2–3 months.
